Patent US5668182A, “Method of calming or sedating an animal with a hydroxy benzaldehyde compound” (priority 1996, dated 1997)
Like-named read-outs stand apart in the source and are kept apart here.

System: mice
Experiment: Inverted screen test in mice (Example 4)
Assay type: in vivo
Settings: for ED50: Mus musculus, ip, read-out: ED-50 (95% confidence limits); for potency relative to vanillin: early time points (up to 5 minutes), ethanol vehicle itself gives approximately 10% impairment
Protocol: An inverted screen test was performed on mice to investigate the effect of vanillin and vanillin analogs on muscular function. After i.p. injection of vanillin or vehicle, each mouse was placed on a wire screen (12.8 cm×12.8 cm with a 6 mm mesh size) and the screen was inverted. A positive effect was found if the drug caused the mouse to fall from the screen within 60 seconds. A negative effect was found if the mouse had the ability to climb from the underside of the screen to the top side of the screen within the 60 second time period. Hanging from the underside of the screen without falling but without climbing to the topside at 60 seconds is recorded as a one-half positive effect per the convention of Coughenour, L. L.; Mclean, J. R.; Parker, R. B., "A New Device for the Rapid Measurement of Impaired Motor Function in Mice," Pharmacol. Biochem. Behav., 6: 351-353; 1977. The test was performed at 2, 5, 10, and 30 minutes following administration of vanillin or vehicle. At each of those times, an ED-50 (and 95% confidence limits) was determined for vanillin. Six mice were used in each experimental group.
Several analogs of vanillin were also examined in this test. The chemical structures and chemical names for these compounds are described hereinabove.
The testing of these compounds was limited both by supply of compound and by solubility. Testing was performed at 2, 5, 10, 20 minutes after administration of drug or vehicle. The vehicles used to solubilize the analogs were as follows: 10% ethanol for TBJ1, TBJ2, and TBJ3; 3% ammonium hydroxide solution in saline for FSA (pH=9); 6.7% ammonium hydroxide in saline for TB17 (pH=9.3); and 20% ethanol, 1% ammonium hydroxide solution in saline for TB34 (pH=10.0). ED-50s of compounds (and 95% confidence limits) were calculated in cases where the data permitted the calculation.

O=Cc1ccc(O)c(C(=O)O)c1 [FSA]
effect on performance in inverted screen test (not included in Table 4): failed to affect performance

O=Cc1ccc(OCc2ccccc2)c(C(=O)O)c1 [TB17]
effect on performance in inverted screen test (not included in Table 4): failed to affect performance

O=Cc1ccc(OCc2ccc(C(=O)O)cc2)c(C(=O)O)c1 [TB34]
effect on performance in inverted screen test (not included in Table 4): mild or erratic effects

COC(=O)c1ccc(O)c(OC)c1 [TBJ1]
effect on performance in inverted screen test (200 mg/kg, 5 minutes): 100%
effect on performance in inverted screen test (200 mg/kg, 20 minutes): 75%
effect on performance in inverted screen test (doses lower than 200 mg/kg): did not produce significant effects

COC(=O)c1ccc(OC)c(O)c1 [TBJ2]
ED50 (2 min, 2 min post-treatment): ~100 mg/kg
ED50 (5 min, 5 min post-treatment): > 100 mg/kg
ED50 (10 min, 10 min post-treatment): 132 mg/kg
ED50 (20 min, at 20 min (printed in the 30 min line)): ~140 mg/kg
potency relative to vanillin: approximately equipotent to vanillin
persistence of effect on performance (highest dose (200 mg/kg)): 20 min
potency and duration relative to vanillin (mouse, in vivo): approximately equipotent and as long or longer acting

COC(=O)Cc1ccc(O)c(OC)c1 [TBJ3]
ED-50: activity in words (10 min post-treatment, inactive at 200 (mg/kg)): inactive
ED50 (5 min, 5 min post-treatment): 99.7 mg/kg
time by which effect had essentially abated (after injection): ≤ 10 min
potency relative to vanillin: approximately equipotent to vanillin
